In the supplement of paper PMC13380429:

What was measured:
Conditions in all cases: 72 h
[1] = system: Caco-2; test: cell viability relative to DMSO; higher = less toxic
[2] = system: Calu-3; test: as above
[3] = system: HepG2; test: as above
[4] = system: U2OS; test: as above
[5] = system: Vero E6; test: as above
[6] = system: Caco-2; test: relative viability EC50 (midpoint between 100% and the lowest measured viability); higher = less toxic
[7] = system: Calu-3; test: as above
[8] = system: HepG2; test: as above
[9] = system: U2OS; test: as above
[10] = system: Vero E6; test: as above
[11] = system: Caco-2; test: drug sensitivity score (DSS) for viability; higher = more toxic; extreme values may be limits of the assay
[12] = system: Calu-3; test: as above
[13] = system: HepG2; test: as above
[14] = system: U2OS; test: as above
[15] = system: Vero E6; test: as above

CC(C)S(=O)(=O)NC[C@H](C)c1ccc(-c2ccc(CCNS(C)(=O)=O)cc2)cc1 [mibampator]
cell viability ([1]; 1 nM): 96.4% | cell viability ([1]; 10 nM): 100% | cell viability ([1]; 100 nM): 101% | cell viability ([1]; 1000 nM): 103% | cell viability ([1]; 10000 nM): 83% | cell viability ([2]; 1 nM): 101% | cell viability ([2]; 10 nM): 107% | cell viability ([2]; 100 nM): 99.9% | cell viability ([2]; 1000 nM): 99.9% | cell viability ([2]; 10000 nM): 86.2% | cell viability ([3]; 1 nM): 107% | cell viability ([3]; 10 nM): 105% | cell viability ([3]; 100 nM): 101% | cell viability ([3]; 1000 nM): 88.2% | cell viability ([3]; 10000 nM): 32.6% | cell viability ([4]; 1 nM): 99.1% | cell viability ([4]; 10 nM): 102% | cell viability ([4]; 100 nM): 100% | cell viability ([4]; 1000 nM): 104% | cell viability ([4]; 10000 nM): 94.1% | cell viability ([5]; 1 nM): 90.8% | cell viability ([5]; 10 nM): 98% | cell viability ([5]; 100 nM): 95.1% | cell viability ([5]; 1000 nM): 94% | cell viability ([5]; 10000 nM): 95.6% | relative viability EC50 [6]: > 10 µM | relative viability EC50 [7]: > 10 µM | relative viability EC50 [8]: 1.85 µM | relative viability EC50 [9]: > 10 µM | relative viability EC50 [10]: > 10 µM | drug sensitivity score [11]: 0.3 | drug sensitivity score [12]: 0.2 | drug sensitivity score [13]: 5.7 | drug sensitivity score [14]: 0 | drug sensitivity score [15]: 0

COc1cc2c(cc1OC)[C@@H](Cc1cc(OC)c(OC)c(OC)c1)[N+](C)(CCCOC(=O)CC/C=C/CCC(=O)OCCC[N+]1(C)CCc3cc(OC)c(OC)cc3[C@H]1Cc1cc(OC)c(OC)c(OC)c1)CC2 (stereo not given in full) [mivacurium]
cell viability ([1]; 1 nM): 107% | cell viability ([1]; 10 nM): 98.9% | cell viability ([1]; 100 nM): 109% | cell viability ([1]; 1000 nM): 123% | cell viability ([1]; 10000 nM): 94.5% | cell viability ([2]; 1 nM): 112% | cell viability ([2]; 10 nM): 97.6% | cell viability ([2]; 100 nM): 101% | cell viability ([2]; 1000 nM): 89.7% | cell viability ([2]; 10000 nM): 94% | cell viability ([3]; 1 nM): 101% | cell viability ([3]; 10 nM): 95.2% | cell viability ([3]; 100 nM): 99.4% | cell viability ([3]; 1000 nM): 84.3% | cell viability ([3]; 10000 nM): 97.7% | cell viability ([4]; 1 nM): 102% | cell viability ([4]; 10 nM): 99.8% | cell viability ([4]; 100 nM): 98.6% | cell viability ([4]; 1000 nM): 96.3% | cell viability ([4]; 10000 nM): 100% | cell viability ([5]; 1 nM): 106% | cell viability ([5]; 10 nM): 112% | cell viability ([5]; 100 nM): 105% | cell viability ([5]; 1000 nM): 97.7% | cell viability ([5]; 10000 nM): 93% | relative viability EC50 [6]: > 10 µM | relative viability EC50 [7]: > 10 µM | relative viability EC50 [8]: > 10 µM | relative viability EC50 [9]: > 10 µM | relative viability EC50 [10]: > 10 µM | drug sensitivity score [11]: 0 | drug sensitivity score [12]: 0 | drug sensitivity score [13]: 0 | drug sensitivity score [14]: 0 | drug sensitivity score [15]: 0

CCCN(CCC)C(=O)C1=Cc2ccc(-c3ccc(C(=O)N4CCCC4)cc3)cc2N=C(N)C1 [motolimod]
cell viability ([1]; 1 nM): 102% | cell viability ([1]; 10 nM): 106% | cell viability ([1]; 100 nM): 124% | cell viability ([1]; 1000 nM): 109% | cell viability ([1]; 10000 nM): 100% | cell viability ([2]; 1 nM): 121% | cell viability ([2]; 10 nM): 103% | cell viability ([2]; 100 nM): 112% | cell viability ([2]; 1000 nM): 112% | cell viability ([2]; 10000 nM): 98.1% | cell viability ([3]; 1 nM): 107% | cell viability ([3]; 10 nM): 113% | cell viability ([3]; 100 nM): 89.7% | cell viability ([3]; 1000 nM): 114% | cell viability ([3]; 10000 nM): 40.6% | cell viability ([4]; 1 nM): 106% | cell viability ([4]; 10 nM): 101% | cell viability ([4]; 100 nM): 99.6% | cell viability ([4]; 1000 nM): 98.1% | cell viability ([4]; 10000 nM): 92% | cell viability ([5]; 1 nM): 102% | cell viability ([5]; 10 nM): 102% | cell viability ([5]; 100 nM): 98.1% | cell viability ([5]; 1000 nM): 99.2% | cell viability ([5]; 10000 nM): 91.6% | relative viability EC50 [6]: > 10 µM | relative viability EC50 [7]: > 10 µM | relative viability EC50 [8]: 4 µM | relative viability EC50 [9]: > 10 µM | relative viability EC50 [10]: > 10 µM | drug sensitivity score [11]: 0 | drug sensitivity score [12]: 0 | drug sensitivity score [13]: 2.5 | drug sensitivity score [14]: 0 | drug sensitivity score [15]: 0

NCc1cc(O)no1 [muscimol]
cell viability ([1]; 1 nM): 94.7% | cell viability ([1]; 10 nM): 96.5% | cell viability ([1]; 100 nM): 98.4% | cell viability ([1]; 1000 nM): 99.5% | cell viability ([1]; 10000 nM): 103% | cell viability ([2]; 1 nM): 91.6% | cell viability ([2]; 10 nM): 95.7% | cell viability ([2]; 100 nM): 98.3% | cell viability ([2]; 1000 nM): 104% | cell viability ([2]; 10000 nM): 97.3% | cell viability ([3]; 1 nM): 96.8% | cell viability ([3]; 10 nM): 105% | cell viability ([3]; 100 nM): 97.7% | cell viability ([3]; 1000 nM): 98.1% | cell viability ([3]; 10000 nM): 94.5% | cell viability ([4]; 1 nM): 101% | cell viability ([4]; 10 nM): 94.6% | cell viability ([4]; 100 nM): 99.6% | cell viability ([4]; 1000 nM): 98.6% | cell viability ([4]; 10000 nM): 97.3% | cell viability ([5]; 1 nM): 98.8% | cell viability ([5]; 10 nM): 97% | cell viability ([5]; 100 nM): 93.1% | cell viability ([5]; 1000 nM): 97.1% | cell viability ([5]; 10000 nM): 101% | relative viability EC50 [6]: > 10 µM | relative viability EC50 [7]: > 10 µM | relative viability EC50 [8]: > 10 µM | relative viability EC50 [9]: > 10 µM | relative viability EC50 [10]: > 10 µM | drug sensitivity score [11]: 0 | drug sensitivity score [12]: 0 | drug sensitivity score [13]: 0 | drug sensitivity score [14]: 0 | drug sensitivity score [15]: 0

CNS(=O)(=O)CCc1ccc2[nH]cc(C3CCN(C)CC3)c2c1 [naratriptan]
cell viability ([1]; 1 nM): 97.5% | cell viability ([1]; 10 nM): 105% | cell viability ([1]; 100 nM): 92.7% | cell viability ([1]; 1000 nM): 100% | cell viability ([1]; 10000 nM): 105% | cell viability ([2]; 1 nM): 114% | cell viability ([2]; 10 nM): 94.1% | cell viability ([2]; 100 nM): 94.7% | cell viability ([2]; 1000 nM): 97% | cell viability ([2]; 10000 nM): 107% | cell viability ([3]; 1 nM): 102% | cell viability ([3]; 10 nM): 98.2% | cell viability ([3]; 100 nM): 105% | cell viability ([3]; 1000 nM): 103% | cell viability ([3]; 10000 nM): 108% | cell viability ([4]; 1 nM): 102% | cell viability ([4]; 10 nM): 106% | cell viability ([4]; 100 nM): 99.2% | cell viability ([4]; 1000 nM): 99.8% | cell viability ([4]; 10000 nM): 95.9% | cell viability ([5]; 1 nM): 98.9% | cell viability ([5]; 10 nM): 100% | cell viability ([5]; 100 nM): 91.9% | cell viability ([5]; 1000 nM): 99.7% | cell viability ([5]; 10000 nM): 96.7% | relative viability EC50 [6]: > 10 µM | relative viability EC50 [7]: > 10 µM | relative viability EC50 [8]: > 10 µM | relative viability EC50 [9]: > 10 µM | relative viability EC50 [10]: > 10 µM | drug sensitivity score [11]: 0 | drug sensitivity score [12]: 0 | drug sensitivity score [13]: 0 | drug sensitivity score [14]: 0 | drug sensitivity score [15]: 0

CN1Cc2c(N)cccc2C(c2ccccc2)C1 (stereo not given) [nomifensine]
cell viability ([1]; 1 nM): 97.1% | cell viability ([1]; 10 nM): 95% | cell viability ([1]; 100 nM): 98% | cell viability ([1]; 1000 nM): 94.6% | cell viability ([1]; 10000 nM): 103% | cell viability ([2]; 1 nM): 104% | cell viability ([2]; 10 nM): 98.2% | cell viability ([2]; 100 nM): 100% | cell viability ([2]; 1000 nM): 106% | cell viability ([2]; 10000 nM): 96.8% | cell viability ([3]; 1 nM): 106% | cell viability ([3]; 10 nM): 110% | cell viability ([3]; 100 nM): 93.5% | cell viability ([3]; 1000 nM): 103% | cell viability ([3]; 10000 nM): 97.3% | cell viability ([4]; 1 nM): 101% | cell viability ([4]; 10 nM): 100% | cell viability ([4]; 100 nM): 102% | cell viability ([4]; 1000 nM): 101% | cell viability ([4]; 10000 nM): 96.3% | cell viability ([5]; 1 nM): 97.9% | cell viability ([5]; 10 nM): 96.8% | cell viability ([5]; 100 nM): 94.2% | cell viability ([5]; 1000 nM): 99.4% | cell viability ([5]; 10000 nM): 110% | relative viability EC50 [6]: > 10 µM | relative viability EC50 [7]: > 10 µM | relative viability EC50 [8]: > 10 µM | relative viability EC50 [9]: > 10 µM | relative viability EC50 [10]: > 10 µM | drug sensitivity score [11]: 0 | drug sensitivity score [12]: 0 | drug sensitivity score [13]: 0 | drug sensitivity score [14]: 0 | drug sensitivity score [15]: 0

O=Cc1cn(Cc2ccc(Cl)cc2)c2ccccc12 [oncrasin-1]
cell viability ([1]; 1 nM): 92.2% | cell viability ([1]; 10 nM): 90.8% | cell viability ([1]; 100 nM): 97.2% | cell viability ([1]; 1000 nM): 101% | cell viability ([1]; 10000 nM): 98.6% | cell viability ([2]; 1 nM): 94.8% | cell viability ([2]; 10 nM): 100% | cell viability ([2]; 100 nM): 96.2% | cell viability ([2]; 1000 nM): 99.8% | cell viability ([2]; 10000 nM): 106% | cell viability ([3]; 1 nM): 101% | cell viability ([3]; 10 nM): 110% | cell viability ([3]; 100 nM): 104% | cell viability ([3]; 1000 nM): 40.3% | cell viability ([3]; 10000 nM): 1.2% | cell viability ([4]; 1 nM): 97.2% | cell viability ([4]; 10 nM): 96.8% | cell viability ([4]; 100 nM): 102% | cell viability ([4]; 1000 nM): 100% | cell viability ([4]; 10000 nM): 101% | cell viability ([5]; 1 nM): 90.4% | cell viability ([5]; 10 nM): 102% | cell viability ([5]; 100 nM): 94.1% | cell viability ([5]; 1000 nM): 95.9% | cell viability ([5]; 10000 nM): 103% | relative viability EC50 [6]: > 10 µM | relative viability EC50 [7]: > 10 µM | relative viability EC50 [8]: 0.847 µM | relative viability EC50 [9]: > 10 µM | relative viability EC50 [10]: > 10 µM | drug sensitivity score [11]: 0 | drug sensitivity score [12]: 0 | drug sensitivity score [13]: 12.5 | drug sensitivity score [14]: 0 | drug sensitivity score [15]: 0
